The target in the test is TrkA (Homo sapiens (Human), UniProt P04629). Description: TrkA Omnia Assay. Type of test: biochemical. The following applies: averaged IC50; 20 nM enzyme, 500 μM ATP, 10 μM peptide substrate. How it is done: Trk enzymatic selectivity was assessed using Omnia™ Kinase Assay reagents from Invitrogen Corp. Enzyme (TrkA from Invitrogen Corp.) and test compound (various concentrations) were incubated for 10 minutes at ambient temperature in a 384-well white polypropylene plate (Nunc catalog#267462). Omnia Tyr Peptide #4, as well as ATP, were then added to the plate. Final concentrations were as follows: 20 nM enzyme, 500 μM of ATP, 10 μM peptide substrate. The assay buffer consisted of 25 mM MOPS pH 7.5, 0.005% (v/v) Triton X-100 and 5 mM MgCl2. The production of phosphorylated peptide was monitored continuously for 70 minutes using a Molecular Devices FlexStation II^384 microplate reader (excitation=360 nm; emission=485 nm). Initial rates were calculated from the progress curves. IC50 values were calculated from these rates using either a 4 or 5-parameter logistic curve fit.

Some results are limits rather than exact numbers.

Sequence of TrkA (P04629 33-796): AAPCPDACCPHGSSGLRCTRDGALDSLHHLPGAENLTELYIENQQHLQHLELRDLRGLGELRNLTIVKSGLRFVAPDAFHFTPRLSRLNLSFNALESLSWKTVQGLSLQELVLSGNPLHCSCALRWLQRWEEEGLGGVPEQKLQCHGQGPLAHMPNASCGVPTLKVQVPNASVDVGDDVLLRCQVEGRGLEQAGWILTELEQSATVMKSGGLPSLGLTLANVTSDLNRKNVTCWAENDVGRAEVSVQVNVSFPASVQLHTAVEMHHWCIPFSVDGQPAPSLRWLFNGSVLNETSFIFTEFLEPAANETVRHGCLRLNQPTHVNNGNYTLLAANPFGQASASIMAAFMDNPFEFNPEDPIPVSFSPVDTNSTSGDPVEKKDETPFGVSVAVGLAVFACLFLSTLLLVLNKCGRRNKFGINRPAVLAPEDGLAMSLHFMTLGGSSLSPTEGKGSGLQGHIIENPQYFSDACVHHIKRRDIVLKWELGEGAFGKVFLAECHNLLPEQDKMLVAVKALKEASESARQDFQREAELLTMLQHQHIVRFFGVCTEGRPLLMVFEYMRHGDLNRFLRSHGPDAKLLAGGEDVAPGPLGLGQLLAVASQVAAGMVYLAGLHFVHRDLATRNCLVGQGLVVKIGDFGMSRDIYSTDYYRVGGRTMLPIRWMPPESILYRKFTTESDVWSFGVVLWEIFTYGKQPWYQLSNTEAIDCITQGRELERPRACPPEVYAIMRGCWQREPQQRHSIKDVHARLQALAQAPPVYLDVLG

As usually defined, the IC50 is the concentration that inhibits the measured activity by half. Turning to `CCOc1nn(-c2ccccc2)c(NC(=O)N[C@@H]2CN(CCOC)C[C@H]2c2ccc(F)c(F)c2)c1CCO` [Example 550, 1-((3S,4R)-4-(3,4-difluorophenyvl)-1-(2-methoxyethyl)pyrrolidin-3-yl)-3-(3-ethoxy-4-(2-hydroxyethyl)-1-phenyl-1H-pyrazol-5-yl)urea], the concentration for half-maximal inhibition (IC50) is less than 100 nM.
The compound `COCCN1C[C@@H](NC(=O)Nc2cc(-c3ccccc3)nn2C)[C@H](c2cccc(C(F)(F)F)c2)C1` [Example 109, 1-((3S,4R)-1-(2-methoxy-ethyl)-4-(3-(trifluoro-methyl)phenyl)pyrrolidin-3-yl)-3-(1-methyl-3-phenyl-1H-pyrazol-5-yl) urea] showed an IC50 of 100 to 1000 nM.
`CCNC(=O)c1nn(-c2ccccc2)c(NC(=O)N[C@@H]2CN(CCOC)C[C@H]2c2ccc(F)c(F)c2)c1C` [Example 461, 5-(3-((3S,4R)-4-(3,4-difluorophenyl)-1-(2-methoxyethyl)pyrrolidin-3-yl)ureido)-N-ethyl-4-methyl-1-phenyl-1H-pyrazole-3-carboxamide] had an IC50 of less than 100 nM.
With `COCCN1C[C@@H](NC(=O)Nc2c(Cl)c(-c3cnn(C)c3)nn2C)[C@H](c2ccc(F)c(F)c2)C1` [Example 567, 1-(4-chloro-1,1′-dimethyl-1H, 1′H-[3,4′-bipyrazol]-5-yl)-3-((3S,4R)-4-(3,4-difluorophenyl)-1-(2-methoxyethyl)pyrrolidin-3-yl)urea], the IC50 lay within 100 to 1000 nM.
Consider `COCCN1C[C@@H](NC(=O)Nc2c(Cl)c(OCC(C)(C)O)nn2-c2ccccc2)[C@H](c2ccc(F)c(F)c2)C1` [Example 359, 1-(4-chloro-3-(2-hydroxy-2-methylpropoxy)-1-phenyl-1H-pyrazol-5-yl)-3-((3S,4R)-4-(3,4-difluorophenyl)-1-(2-methoxyethyl)pyrrolidin-3-yl)urea], for which the IC50 is less than 100 nM.
In turn, `COCCN1C[C@@H](NC(=O)Nc2c(Cl)c(-c3cnn(CCOC)c3)nn2-c2ccccc2)[C@H](c2ccc(F)c(F)c2)C1` [Example 556, 1-(4-chloro-1′-(2-methoxyethyl)-1-phenyl-1H, 1′H-[3,4′-bipyrazol]-5-yl)-3-((3S,4R)-4-(3,4-difluorophenyl)-1-(2-methoxyethyl)pyrrolidin-3-yl)urea] gave an IC50 of less than 100 nM.
Compound `COCCN1C[C@@H](NC(=O)Nc2c(C)c(OCCF)nn2-c2ccccc2)[C@H](c2cncc(F)c2)C1` [Example 339, 1-(3-(2-fluoroethoxy)-4-methyl-1-phenyl-1H-pyrazol-5-yl)-3-((3S,4R)-4-(5-fluoropyridin-3-yl)-1-(2-methoxyethyl)pyrrolidin-3-yl)urea] had an IC50 of less than 100 nM.
`COCCN1C[C@@H](NC(=O)Nc2c(Cl)c(CCO)nn2-c2ccccc2)[C@H](c2ccc(F)c(F)c2)C1` [Example 449, 1-(4-chloro-3-(2-hydroxyethyl)-1-phenyl-1H-pyrazol-5-yl)-3-((3S,4R)-4-(3,4-difluorophenyl)-1-(2-methoxyethyl)pyrrolidin-3-yl)urea] registered an IC50 of less than 100 nM.
`COCCN1C[C@@H](NC(=O)Nc2c(C)c(-c3nnc(C)o3)nn2-c2ccccc2)[C@H](c2ccc(F)c(F)c2)C1` [Example 297, 1-((3S,4R)-4-(3,4-difluorophenyl)-1-(2-methoxyethyl)pyrrolidin-3-yl)-3-(4-methyl-3-(5-methyl-1,3,4-oxadiazol-2-yl)-1-phenyl-1H-pyrazol-5-yl)urea] registered an IC50 of less than 100 nM.
In the case of `COCCN1C[C@@H](NC(=O)Nc2cc(C(C)(C)C)nn2-c2cccc(C)c2)[C@H](c2ccccc2)C1` (relative stereo) [Example 30, 1-(3-tert-butyl-1-m-tolyl-1H-pyrazol-5-yl)-3-(trans-1-(2-methoxyethyl)-4-phenylpyrrolidin-3-yl)urea] it was less than 100 nM; in that of `CCOc1nn(-c2ccccc2)c(NC(=O)N[C@@H]2CN(CCOC)C[C@H]2c2ccccc2)c1C` [Example 139], less than 100 nM.

Values taken from patent US10323022B2, “Pyrrolidinyl urea, pyrrolidinyl thiourea and pyrrolidinyl guanidine compounds as TrkA kinase inhibitors” (Array BioPharma Inc., priority 2011, dated 2019).
